In US11065335B2, “Methods of treating leukemia using compositions containing bis(benzylthio)octanoic acid and ion pairs thereof” (Rafael Pharmaceuticals, Inc., priority 2007, dated 2021):
Where a name gives a salt, the structure may show the parent alone.

How the values were obtained:
[1] = test system: A2780 ovarian tumor cells and BXPC3 human pancreatic cancer cells; assay: CellTiter Glo cell viability assay, text statements not split by cell line; assay type: cell-based; settings: vehicle alone 3200 μM
Description: Two types of human tumor cells were used in this investigation: BXPC3 human pancreatic cancer cells and A2780 human ovarian cancer cells. The BXPC3 cells were originally obtained from American Type Cell Culture (ATCC). […] The tumor cells were split at a ratio of 1:5 every 4-5 days by trypsinization and resuspended in fresh medium in a new flask. Cells were harvested for experiments at 70-90% confluency.
(§1) The corresponding vehicle concentrations were 64, 32, 16, 12, and 4 mM respectively. A sixty-four mM aliquot of vehicle was dissolved in 10 mL of water. […] A 5 μL aliquot of this stock solution was added to 95 μL of tumor cells in media. Upon dilution in the wells, the corresponding drug concentrations were 400, 200, 100, 75 and 25 μM respectively.
This gave a 16 mM solution.
This stock was further diluted serially in complete media to give 8 mM, 4 mM 2 mM, 1.5 mM and 0.5 mM working solutions.
The tumor cells were treated for 24 hrs with the test article in serum-containing medium. After 24 hrs of treatment the number of viable tumor cells was determined.
The number of cells targeted for the study was 4×10^3 per well in 100 μL of medium. The actual number of cells were counted and seeded in the wells of a 96 well-plate.
For each cell line the concentrations of test articles or vehicles specified above was used. Five μL of the working solution for each test article or vehicle was added to 95 μL of cell culture media. The corresponding final concentrations of test articles are 20 fold more diluted than the working solutions. […] Additionally, a set of wells was treated with cell culture medium in the absence of cells to obtain a value for background luminescence.
The number of viable cells was determined by using the CellTiter Glo® Assay. Specifically, reagents were mixed and allowed to come to room temperature according to instructions from Promega, Inc. (Madison, Wis.). Cell plates were removed from the cell culture incubator and left on the bench for 30 minutes until they reach room temperature. A one-hundred μL aliquot CellTiter Glo® reagent was added to each well with a 12-channel Eppendorf pipettor. The cells were lysed by shaking the plate for 2 minutes in a shaker. Then, the cells were kept at room temperature for 10 minutes to stabilize the luminescent signal. The luminescence was measured using the FLUOstar OPTIMA plate reader (BMG Labtech, Inc., Durham, N.C.).
Data from luminescence readings was copied onto EXCEL spreadsheets, and cell growth relative to untreated cells was calculated, using the following equation: […]
The calculated values were imported into SigmaPlot, v11. A Four-Parameter Logistic Curve of the “mean relative cell growth as a function of the concentrations of the test articles” was generated. The EC50 values were determined from the curves. The R-squared value provides an indication of the degree of fitness of data to the curve. For each experiment, the percentage of viable cells was be expressed as the mean of 9 replicates. The average was calculated by taking the mean±standard deviation of the three experiments.

[2] = in vitro; settings: human, BXPC3 Cell Viability; for viability: 24 hrs
Description: (§2) Two types of human tumor cells were used in this investigation: BXPC3 human pancreatic cancer cells and A2780 human ovarian cancer cells. The BXPC3 cells were originally obtained from American Type Cell Culture (ATCC). The ovarian tumor cells were gifts from Roswell Park Cancer Institute, Buffalo, N.Y. All tumor cells were maintained at 37° C. in a humidified 5% CO2 atmosphere in T75 tissue culture flasks containing 20 mL of Roswell Park Memorial Institute (RPMI) 1640 containing 2 mM L-glutamine, 10% fetal bovine serum (FBS) and 1% penicillin and streptomycin (100 IU/mL penicillin and 100 μg/mL streptomycin). The tumor cells were split at a ratio of 1:5 every 4-5 days by trypsinization and resuspended in fresh medium in a new flask. Cells were harvested for experiments at 70-90% confluency.
as §1, with “CPI-613 (i.e., 6,8-bis(benzylthio)octanoic acid) stock solutions at concentrations of 8, 4, 2, 1.5 and 0.5 mM were prepared in the appropriate vehicles. The molar ratio of vehicle to CPI-613 was maintained at 8:1. The” for “The”, “water. Next, 8 mM of CPI-613 was added and the mixture was stirred until a clear solution was obtained.” for “water.”
(§3) For the sodium salt and potassium salt form of CPI-613, 1 equivalent of CPI-613 solid was dissolved in water. Sixty-two mg of CPI-613 (0.00016 mol) was added to 10 mL of water, then 165 μL of 1M NaOH or KOH was added and stirred until a clear solution was obtained. This gave a 16 mM solution. The resulting 16 mM solution was then serially diluted, thereby providing 8 mM and 4 mM solutions of the CPI-613 salt form. For the ammonium salt, vehicle to drug ratio was maintained at 8:1 and the formulation was prepared using procedures analogous to those described above in Section 2 relating to preparation of CPI-613 formulations in different vehicles.
(§4) CPI-613 formulated in 1M triethanolamine (TEA) was used as an internal control during formulation screening. To prepare a 16 mM of working stock of CPI-613, 50 mg/mL of CPI-613 (128.66 mM of CPI-613 in 1M TEA) was diluted in complete cell culture media containing 10% FBS. That is, 310 μL of a 128.66 mM solution of CPI-613 in 1M TEA was added to 2.19 mL of cell culture media. This stock was further diluted serially in complete media to give 8 mM, 4 mM 2 mM, 1.5 mM and 0.5 mM working solutions. On the day of testing, 5 μL of this working solution was added to 95 μL of cell culture media (20 fold dilution) resulting final concentrations of 400, 200, 100, 75 and 25 μM CPI-613, respectively. The ratio of CPI-613 to TEA was maintained at 1:8 ratio at all times.
(§5) The cell viability of CPI-613 formulations formulated at a ratio of 1:8, CPI-613 to vehicle, was assessed by exposing the A2780 ovarian tumor cells and BXPC3 human pancreatic cancer cells to the following CPI-613 concentrations: 400 μM (3200 μM vehicle), 200 μM (1600 μM vehicle), 100 μM (800 μM vehicle), 75 μM (600 μM vehicle) and 25 μM (200 μM vehicle) The impact of corresponding vehicles at 3200, 1600 and 800 μM concentrations was also tested in tumor cells for cell viability. […] CPI-613 in TEA was used as an internal control. The tumor cells were treated for 24 hrs with the test article in serum-containing medium. After 24 hrs of treatment the number of viable tumor cells was determined.
(§6) The number of cells targeted for the study was 4×10^3 per well in 100 μL of medium. The actual number of cells were counted and seeded in the wells of a 96 well-plate. The cells were incubated for ˜24 hrs before addition of CPI-613.
(§7) For each cell line the concentrations of test articles or vehicles specified above was used.

[3] = in vitro; settings: human, A2780 Cell Viability; for viability: 24 hrs
Description: as §2
as §1, with “CPI-613 (i.e., 6,8-bis(benzylthio)octanoic acid) stock solutions at concentrations of 8, 4, 2, 1.5 and 0.5 mM were prepared in the appropriate vehicles. The molar ratio of vehicle to CPI-613 was maintained at 8:1. The” for “The”, “water. Next, 8 mM of CPI-613 was added and the mixture was stirred until a clear solution was obtained.” for “water.”
as §3, §4, §5, §6, §7

[4] = test system: BXPC3 human pancreatic cancer cells; assay: CellTiter Glo cell viability assay, BXPC3 cells; settings: 24 hrs; for BXPC3 Cell Viability (alkali salt formulations): CPI-613 to base 1:1
Description: as §2
as §1, with “CPI-613 (i.e., 6,8-bis(benzylthio)octanoic acid) stock solutions at concentrations of 8, 4, 2, 1.5 and 0.5 mM were prepared in the appropriate vehicles. The molar ratio of vehicle to CPI-613 was maintained at 8:1. The” for “The”, “water. Next, 8 mM of CPI-613 was added and the mixture was stirred until a clear solution was obtained.” for “water.”
as §3, §4, §5, §6, §7

[5] = test system: A2780 human ovarian cancer cells; assay: CellTiter Glo cell viability assay, A2780 cells; settings: 24 hrs; for A2780 Cell Viability (alkali salt formulations): CPI-613 to base 1:1
Description: as §2
as §1, with “CPI-613 (i.e., 6,8-bis(benzylthio)octanoic acid) stock solutions at concentrations of 8, 4, 2, 1.5 and 0.5 mM were prepared in the appropriate vehicles. The molar ratio of vehicle to CPI-613 was maintained at 8:1. The” for “The”, “water. Next, 8 mM of CPI-613 was added and the mixture was stirred until a clear solution was obtained.” for “water.”
as §3, §4, §5, §6, §7

[6] = BXPC3 pancreatic cancer cells, vehicle alone 800 μM
[7] = BXPC3 pancreatic cancer cells, vehicle alone 1600 μM
[8] = BXPC3 pancreatic cancer cells, vehicle alone 3200 μM
[9] = A2780 ovarian cancer cells, vehicle alone 800 μM
[10] = A2780 ovarian cancer cells, vehicle alone 1600 μM
[11] = A2780 ovarian cancer cells, vehicle alone 3200 μM

Row | Compound | impact of vehicle on cancer cell killing [1] | viability at 24 h, 800 μM [2, 6] [%] | viability at 24 h, 1600 μM [2, 7] [%] | viability at 24 h, 3200 μM [2, 8] [%] | viability at 24 h, 800 μM [3, 9] [%] | viability at 24 h, 1600 μM [3, 10] [%] | viability at 24 h, 3200 μM [3, 11] [%] | further results
1 | Aminopropanediol | did not show a significant impact on cancer cell killing |  |  |  |  |  |  | 
2 | CNC[C@H](O)[C@@H](O)[C@H](O)[C@H](O)CO [Meglumine] | did not show a significant impact on cancer cell killing |  |  |  |  |  |  | viability ([2]; vehicle alone 800 μM): 85 to 95%; viability ([2]; vehicle alone 1600 μM): 85 to 95%; viability ([2]; vehicle alone 3200 μM): 85 to 95%; viability ([3]; vehicle alone 800 μM): > 95%; viability ([3]; vehicle alone 1600 μM): > 95%; viability ([3]; vehicle alone 3200 μM): > 95%
3 | NC(CO)(CO)CO [Tris base] | did not show a significant impact on cancer cell killing | > 95 | > 95 | > 95 | > 95 | > 95 | > 95 | 
4 | NCCCC[C@H](N)C(=O)O [Lysine] | did not show a significant impact on cancer cell killing | > 95 | > 95 | > 95 | > 95 | > 95 | > 95 | 
5 | C1CNCCN1 [Piperazine] | did not show a significant impact on cancer cell killing | 85 to 95 | 85 to 95 | 70 to 85 | 85 to 95 | 70 to 85 | 85 to 95 | 
6 | CCNCC [Diethylamine] | did not show a significant impact on cancer cell killing |  |  |  |  |  |  | viability at 24 h, 800 μM ([2]; vehicle alone 800 μM): > 95%; viability at 24 h, 1600 μM ([2]; vehicle alone 1600 μM): 70 to 85%; viability at 24 h, 3200 μM ([2]; vehicle alone 3200 μM): < 70%; viability at 24 h, 800 μM ([3]; vehicle alone 800 μM): > 95%; viability at 24 h, 1600 μM ([3]; vehicle alone 1600 μM): > 95%; viability at 24 h, 3200 μM ([3]; vehicle alone 3200 μM): 85 to 95%
7 | O=C(O)CCCCC(CCSCc1ccccc1)SCc1ccccc1 (stereo not shown) [CPI-613 potassium salt] |  |  |  |  |  |  |  | BXPC3 Cell Viability (alkali salt formulations) ([4]; CPI-613 25 μM): + (tumor cell viability of >95%); BXPC3 Cell Viability (alkali salt formulations) ([4]; CPI-613 75 μM): ++ (tumor cell viability of >70% up to 95%); BXPC3 Cell Viability (alkali salt formulations) ([4]; CPI-613 100 μM): ++ (tumor cell viability of >70% up to 95%); BXPC3 Cell Viability (alkali salt formulations) ([4]; CPI-613 200 μM): +++ (tumor cell viability of >30% up to 70%); BXPC3 Cell Viability (alkali salt formulations) ([4]; CPI-613 400 μM): +++++ (tumor cell viability of ≤10%); cell kill in BXPC3 cells ([4]; salt formulation at 200 μM): ~50%; cell kill in BXPC3 cells ([4]; salt formulation at 400 μM): all the cells were killed; A2780 Cell Viability (alkali salt formulations) ([5]; CPI-613 25 μM): ++ (tumor cell viability of >70% up to 95%); A2780 Cell Viability (alkali salt formulations) ([5]; CPI-613 75 μM): ++ (tumor cell viability of >70% up to 95%); A2780 Cell Viability (alkali salt formulations) ([5]; CPI-613 100 μM): ++ (tumor cell viability of >70% up to 95%); A2780 Cell Viability (alkali salt formulations) ([5]; CPI-613 200 μM): +++ (tumor cell viability of >30% up to 70%); A2780 Cell Viability (alkali salt formulations) ([5]; CPI-613 400 μM): +++++ (tumor cell viability of ≤10%); cell kill in A2780 cells ([5]; salt formulation at 200 μM): ~65%; cell kill in A2780 cells ([5]; salt formulation at 400 μM): all the cells were killed
8 | NCCCO [3-amino-1-proponol] | did not show a significant impact on cancer cell killing |  |  |  |  |  |  | 
9 | NCCO [Ethanolamine] |  | 85 to 95 | 85 to 95 | 85 to 95 | > 95 | > 95 | > 95 | 
10 | CC(O)CNCC(C)O (stereo not shown) [Diisopropanolamine] | appear to have come cell killing effects |  |  |  |  |  |  | 
